# Columns and labels:
# rat [1] = conditions: Multigenerational reproductive toxicity study, other, Oral, Feed, dose end: 2 generation
# rat [2] = conditions: Prenatal developmental toxicity study, fischer, Oral, Gavage/Intubation, dose end: 15 GD
# mouse = conditions: Prenatal developmental toxicity study, cd1, Oral, Gavage/Intubation, dose end: 15 GD
# rat [3] = conditions: Prenatal developmental toxicity study, sprague dawley, Oral, Gavage/Intubation, dose end: 15 GD
# rabbit = conditions: Prenatal developmental toxicity study, new zealand white, Oral, Gavage/Intubation, dose end: 19 GD
# rat [4] = conditions: Peri- and post-natal toxicity study (Segment III), sprague dawley, Oral, Gavage/Intubation, dose end: 43 PND
# rat [5] = conditions: Peri- and post-natal toxicity study (Segment III), sprague dawley, Oral, Gavage/Intubation, dose end: 40 PND
# [6] = group: offspring, developmental / offspring survival late / [other] / [other] + systemic / in life observation / body weight / offspring (pup) weight
# [7] = group: parental, systemic / in life observation / body weight / body weight + systemic / in life observation / food consumption / food consumption
# [8] = group: reproductive, reproductive / offspring survival early / litter size / litter size + reproductive / offspring survival early / live fetuses / live fetuses
# [9] = group: developmental, systemic / in life observation / body weight / fetal weight
# [10] = group: maternal, systemic / in life observation / body weight / body weight + systemic / in life observation / body weight / body weight gain + systemic / in…
# [11] = group: maternal, systemic / in life observation / body weight / body weight gain + systemic / in life observation / food consumption / food consumption
# [12] = group: maternal, systemic / in life observation / mortality / mortality
# [13] = group: maternal, systemic / in life observation / mortality / mortality + systemic / organ weight / liver / absolute + systemic / organ weight / uterus / nos
# [14] = group: maternal, systemic / in life observation / body weight / body weight gain + systemic / in life observation / clinical signs / fur (altered appearance…
# [15] = group: developmental, developmental / developmental malformation / bone / misshapen + developmental / developmental malformation / gallbladder / hypoplasia + …
# [16] = group: developmental, developmental / developmental landmark / vaginal opening / vaginal opening
# [17] = group: maternal, reproductive / reproductive performance / estrous cycle / [other]
# [18] = group: maternal, reproductive / reproductive performance / estrous cycle / [other] + reproductive / reproductive performance / estrous cycle / abnormal + …
# [19] = group: parental, systemic / organ weight / liver / absolute + systemic / organ weight / ovary / absolute + systemic / organ weight / pituitary gland / …
# [20] = group: maternal, reproductive / reproductive performance / estrous cycle / corpora lutea
# [21] = group: parental, systemic / pathology microscopic / ovary / follicle count + systemic / pathology microscopic / uterus / thickened
smiles,measurement,setting,value
Cl/C=C\C[N+]12CN3CN(CN(C3)C1)C2.[Cl-] [Chloroallyl methenamine chloride],LEL,rat [1]; [6],14.8 mg/kg/day
same,LOAEL,rat [1]; [6],> 14.8 mg/kg/day
same,NEL,rat [1]; [6],5 mg/kg/day
same,NOAEL,rat [1]; [6],≥ 14.8 mg/kg/day
same,LEL,rat [1]; [7],4.57 mg/kg/day
same,LOAEL,rat [1]; [7],> 13.4 mg/kg/day
same,NEL,rat [1]; [7],1.53 mg/kg/day
same,NOAEL,rat [1]; [7],≥ 13.4 mg/kg/day
same,NEL,"rat [1]; group: reproductive, reproductive / offspring survival early / litter size / litter size",5 mg/kg/day
same,LEL,rat [1]; [8],14.8 mg/kg/day
same,LOAEL,rat [1]; [8],> 14.8 mg/kg/day
same,NOAEL,rat [1]; [8],≥ 14.8 mg/kg/day
same,LEL,rat [2]; [9],75 mg/kg/day
same,LOAEL,rat [2]; [9],> 75 mg/kg/day
same,NEL,rat [2]; [9],25 mg/kg/day
same,NOAEL,rat [2]; [9],≥ 75 mg/kg/day
same,LOAEL,rat [2]; [10],75 mg/kg/day
same,NOAEL,rat [2]; [10],25 mg/kg/day
same,LEL,rat [2]; [11],25 mg/kg/day
same,NEL,rat [2]; [11],< 25 mg/kg/day
CN(C)[C@@H]1C(=O)C(C(N)=O)=C(O)[C@@]2(O)C(=O)C3=C(O)c4c(O)cccc4[C@@](C)(O)[C@H]3[C@H](O)[C@@H]12 [Oxytetracycline],LEL,mouse; [9],2100 mg/kg/day
same,LOAEL,mouse; [9],> 2100 mg/kg/day
same,NEL,mouse; [9],1670 mg/kg/day
same,NOAEL,mouse; [9],≥ 2100 mg/kg/day
same,LEL,mouse; [12],1320 mg/kg/day
same,NEL,mouse; [12],< 1320 mg/kg/day
same,LOAEL,mouse; [13],> 2100 mg/kg/day
same,NOAEL,mouse; [13],≥ 2100 mg/kg/day
same,LEL,rat [3]; [9],1200 mg/kg/day
same,LOAEL,rat [3]; [9],> 1500 mg/kg/day
same,NEL,rat [3]; [9],< 1200 mg/kg/day
same,NOAEL,rat [3]; [9],≥ 1500 mg/kg/day
same,LEL,rat [3]; [14],1200 mg/kg/day
same,LOAEL,rat [3]; [14],> 1500 mg/kg/day
same,NEL,rat [3]; [14],< 1200 mg/kg/day
same,NOAEL,rat [3]; [14],≥ 1500 mg/kg/day
CC1=C(C(=O)Nc2ccccc2)S(=O)(=O)CCO1 [Oxycarboxin],LEL,rabbit; [15],750 mg/kg/day
same,LOAEL,rabbit; [15],750 mg/kg/day
same,NEL,rabbit; [15],150 mg/kg/day
same,NOAEL,rabbit; [15],150 mg/kg/day
same,LEL,rabbit; [10],750 mg/kg/day
same,LOAEL,rabbit; [10],750 mg/kg/day
same,NEL,rabbit; [10],150 mg/kg/day
same,NOAEL,rabbit; [10],150 mg/kg/day
COc1ccc(C(c2ccc(OC)cc2)C(Cl)(Cl)Cl)cc1 [Methoxychlor],LEL,rat [4]; [16],12.5 mg/kg/day
same,LOAEL,rat [4]; [16],> 50 mg/kg/day
same,NEL,rat [4]; [16],< 12.5 mg/kg/day
same,NOAEL,rat [4]; [16],≥ 50 mg/kg/day
same,LEL,rat [4]; [17],12.5 mg/kg/day
same,NEL,rat [4]; [17],< 12.5 mg/kg/day
same,LOAEL,rat [4]; [18],> 50 mg/kg/day
same,NOAEL,rat [4]; [18],≥ 50 mg/kg/day
same,LEL,rat [4]; [19],50 mg/kg/day
same,LOAEL,rat [4]; [19],> 50 mg/kg/day
same,NEL,rat [4]; [19],25 mg/kg/day
same,NOAEL,rat [4]; [19],≥ 50 mg/kg/day
CC(C)COC(=O)c1ccc(O)cc1 [Isobutylparaben],LEL,rat [5]; [20],62.5 mg/kg/day
same,LOAEL,rat [5]; [20],> 1000 mg/kg/day
same,NEL,rat [5]; [20],< 62.5 mg/kg/day
same,NOAEL,rat [5]; [20],≥ 1000 mg/kg/day
same,LEL,rat [5]; [21],62.5 mg/kg/day
same,LOAEL,rat [5]; [21],> 1000 mg/kg/day
same,NEL,rat [5]; [21],< 62.5 mg/kg/day
same,NOAEL,rat [5]; [21],≥ 1000 mg/kg/day
